The nature of data set [1]: Drug degradation assessed as conversion to ferrugineic acid F and ferrugineic acid G under diffuse daylight condition at 25 degC for 1 month. The format is physicochemical. The following applies: 730.5 h.
Data set [2] in a line: Drug degradation assessed as conversion to ferrugineic acid H and ferrugineic acid I under diffuse daylight condition at 25 degC for 1 month. Format: physicochemical. The conditions noted are these: 730.5 h.
Data set [3] is described as follows: Drug degradation in DMSO assessed as autoxidation at 4 degC incubated under dark condition for 6 months. Format: physicochemical. The conditions noted are these: 4383 h.
A short description of data set [4]: Drug degradation assessed as conversion to ferrugineic acid F and ferrugineic acid G at 4 degC incubated under dark condition for 3 to 6 months. The format is physicochemical.
A short description of data set [5]: Drug degradation assessed as conversion to ferrugineic acid H and ferrugineic acid I at 4 degC incubated under dark condition for 3 to 6 months. The format is physicochemical.
Data set [6] addresses T1, Bcl-2-like protein 1 (Homo sapiens, UniProt Q07817). Put plainly: Displacement of fluorescein-labeled BAK from His-tagged BCL-XL (unknown origin) at 100 uM after 1 hr by fluorescence polarization assay relative to control.
In data set [7] the target is T1, Bcl-2-like protein 1. Kind of data set: Displacement of fluorescein-labeled BAK from His-tagged BCL-XL (unknown origin) after 1 hr by fluorescence polarization assay.
Data set [8] concerns the target T2, Induced myeloid leukemia cell differentiation protein Mcl-1 (Homo sapiens, UniProt Q07820). Kind of data set: Displacement of fluorescein-labeled BID from His-tagged MCL-1 (unknown origin) at 100 uM after 1 hr by fluorescence polarization assay relative to control. (In general: In fluorescence polarisation assays a small probe gives low polarisation when free and higher when bound to something large.)

For the next data set, the system named is HCT-116. Put plainly: Cytotoxicity against human HCT116 cells up to 50 uM after 72 hrs by resazurin-based fluorimetric assay. The format is functional, cell-based. (Resazurin is reduced to fluorescent resorufin, in cell work by metabolically active cells.)
Data set [9] deals with K562. Kind of data set: Cytotoxicity against human K562 cells up to 50 uM after 72 hrs by resazurin-based fluorimetric assay. Format: functional, cell-based.
Data set [10] concerns the target T2, Induced myeloid leukemia cell differentiation protein Mcl-1. Kind of data set: Displacement of fluorescein-labeled BID from His-tagged MCL-1 (unknown origin) after 1 hr by fluorescence polarization assay.
Data set [11] is described as follows: Cytotoxicity against human HCT116 cells after 72 hrs by resazurin-based fluorimetric assay. Format: functional, cell-based. The following applies: HCT-116, 72 h.
Data set [12] concerns K562. Kind of data set: Cytotoxicity against human K562 cells after 72 hrs by resazurin-based fluorimetric assay. Format: functional, cell-based. The following applies: K562, 72 h.

Active and inactive are the calls of the source. The rule behind the calls is not given here.

T1 sequence (Q07817 whole entry): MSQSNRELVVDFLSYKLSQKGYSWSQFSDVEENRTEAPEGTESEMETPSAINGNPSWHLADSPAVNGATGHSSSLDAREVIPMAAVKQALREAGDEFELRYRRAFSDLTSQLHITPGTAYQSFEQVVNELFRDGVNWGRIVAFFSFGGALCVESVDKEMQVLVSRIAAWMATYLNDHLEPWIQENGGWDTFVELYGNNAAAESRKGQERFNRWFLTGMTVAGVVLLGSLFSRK
T2 sequence (Q07820 whole entry): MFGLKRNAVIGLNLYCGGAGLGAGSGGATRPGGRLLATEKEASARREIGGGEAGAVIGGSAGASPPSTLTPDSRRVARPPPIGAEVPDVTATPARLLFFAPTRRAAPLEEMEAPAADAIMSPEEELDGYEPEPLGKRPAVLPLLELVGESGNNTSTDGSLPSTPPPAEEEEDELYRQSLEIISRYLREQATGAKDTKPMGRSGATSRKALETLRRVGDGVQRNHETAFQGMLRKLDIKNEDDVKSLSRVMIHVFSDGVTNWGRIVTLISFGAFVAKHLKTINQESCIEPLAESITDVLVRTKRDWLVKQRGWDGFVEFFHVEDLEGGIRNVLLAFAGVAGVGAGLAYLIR

For the compound `O=C(O)[C@@H]1C=C[C@@H]2C[C@H]3[C@H](CCCc4ccc(O)cc4)[C@H]4C=C[C@@H]1[C@@H]2[C@H]43` (relative stereo), the Stability entry in data set [1] was “Unstable”; in data set [2], “Unstable”; in [3], “Stable”; in data set [4], “Unstable”; in data set [5], “Unstable”. The inhibition amounted to 22% on Bcl-2-like protein 1 [6] and 0% in data set [8]. Also, the Ki on Bcl-2-like protein 1 [7] is > 100 µM. The result in the data set on HCT-116 and in the data set with K562 [9] was inactive.

In the case of `O=C(O)[C@@H]1C=C[C@@H]2C[C@H]3[C@H](CCCCCc4ccc(O)cc4)[C@H]4C=C[C@@H]1[C@@H]2[C@H]43` (relative stereo), the Stability entry is listed as “Unstable” in [1]; “Unstable” in data set [2]; “Stable” in data set [3]; “Unstable” in [4]; “Unstable” in [5]. The inhibition amounted to 60% on Bcl-2-like protein 1 [6] and 85% in data set [8]. Also, the Ki at Bcl-2-like protein 1 [7] was found to be 19.2 µM; in [10], 14 µM. Moreover, the result in the data set on HCT-116 and with K562 [9] was inactive.

As for `O=C(O)[C@@H]1C=C[C@@H]2C[C@H]3[C@H](CCCCCCCc4ccc(O)cc4)[C@H]4C=C[C@@H]1[C@@H]2[C@H]43` (relative stereo), in data set [3], the Stability result is listed as “Stable”. Further, the inhibition came to 93% at Bcl-2-like protein 1 [6] and 82% in data set [8]. Besides, the inhibition constant (Ki) was 12.6 µM at Bcl-2-like protein 1 [7] and 13 µM in data set [10]. Besides, the result with HCT-116 and in the data set with K562 [9] was inactive.

For `O=C(O)[C@@H]1C=C[C@@H]2C[C@H]3[C@H](CCCc4ccc(O)c(O)c4)[C@H]4C=C[C@@H]1[C@@H]2[C@H]43` (relative stereo), the Stability entry in data set [3] is recorded as “Stable”. The results for the inhibition (on Bcl-2-like protein 1 [6]; in data set [8]) were 39% and 82%, respectively. Also, the values for the inhibition constant (Ki) (at Bcl-2-like protein 1 [7]; in data set [10]) were > 100 µM and 5.2 µM, respectively. Further, the outcome in the data set with HCT-116 and in the data set with K562 [9] was inactive.

On to `O=C(O)[C@@H]1C=C[C@@H]2C[C@H]3[C@H](CC/C=C/Cc4ccc(O)cc4)[C@H]4C=C[C@@H]1[C@@H]2[C@H]43` (relative stereo), for which, in data set [3], the Stability result is given as “Stable”. The inhibition turned out to be 20% on Bcl-2-like protein 1 [6] and 14% in [8]. Further, the result with HCT-116 and in the data set with K562 [9] was inactive.

`O=C(O)/C=C/[C@H]1[C@H]2C=C[C@H]3[C@@H]1C[C@H]1[C@H](CCCc4ccc(O)cc4)[C@@H]2[C@@H]31` (relative stereo): the inhibition at Bcl-2-like protein 1 [6] was 22%; in data set [8], 0%. The Ki on Bcl-2-like protein 1 [7] is > 100 µM. For the same compound, the result with HCT-116 and with K562 [9] was inactive.

For the compound `O=C(O)C1=CC(=O)[C@@H]2C[C@H]3[C@H](CCCc4ccc(O)cc4)[C@H]4C=C[C@@H]1[C@@H]2[C@H]43` (relative stereo), the result in the data set with HCT-116 and in the data set on K562 [9] was inactive.

Turning to `O=C(O)C1=C[C@@H](O)[C@@H]2C[C@H]3[C@H](CCCc4ccc(O)cc4)[C@H]4C=C[C@@H]1[C@@H]2[C@H]43` (relative stereo), the inhibition on Bcl-2-like protein 1 [6] is 7%; in data set [8], 0%. Also, the result in the data set with HCT-116 and in the data set with K562 [9] was inactive.

Compound `O=C(O)C1=C[C@H](O)[C@@H]2C[C@H]3[C@H](CCCCCc4ccc(O)cc4)[C@H]4C=C[C@@H]1[C@@H]2[C@H]43` (relative stereo) had an inhibition in data set [8] of 3%.

As to `CCC1=C[C@@H]2CN(C1)Cc1c([nH]c3ccccc13)[C@@](C(=O)OC)(c1cc3c(cc1OC)N(C)[C@H]1[C@@](O)(C(=O)OC)[C@H](OC(C)=O)[C@]4(CC)C=CCN5CC[C@]31[C@@H]54)C2` [VINORELBINE], the IC50 in data set [11] was 15 nM; in the data set with K562 [12], 6 nM.

What is called inhibition is the share of the control response that was lost under treatment. Low readings indicate a weak effect, high ones a strong effect. As a reminder, the Ki is the dissociation constant of the complex between target and ligand, obtained from inhibition or displacement. A high value points to a looser hold on the target. Broadly, the IC50 is the midpoint of a concentration-inhibition curve. Lower therefore signals greater potency.

Source of the values: ChEMBL document CHEMBL3297727, “Endiandric acid analogues from Beilschmiedia ferruginea as dual inhibitors of Bcl-xL/Bak and Mcl-1/Bid interactions” (J Nat Prod, 2014).
